Laboratory results reported in article PMC9841525, “Chemical Blockage of the Mitochondrial Rhomboid Protease PARL by Novel Ketoamide Inhibitors Reveals Its Role in PINK1/Parkin-Dependent Mitophagy” (Journal of Medicinal Chemistry, 2022).
*1 amine or outer side, *2 acyl side, *3 side chain or, on linkers, in order; H or OH if unused. Where a SMILES comes first, the peptide text is derived from it. [ ]: non-standard residue; d: D form. The star is where a group is joined. NH(4-phenylbutyl) = c1ccc(CCCCN*)cc1; X1 = C[C@H](N[*:1])C(=O)C(=O)[*:2]

Tested on: PINK1
Test: PINK1 processing in HEK293 T-REx cells overexpressing PINK1, immunoblot
Type: cell-based, human
Details: HEK293 T-REx cells overexpressing PINK1, 8 h
Experimental: Inducible stable Flp-In HEK293 T-REx cells expressing PINK1 were described previously.[33] HEK293 T-REx PINK1 and HEK293T cells were grown in DMEM (Gibco) supplemented with 10% (v/v) fetal bovine serum (ThermoFisher), 1% (v/v) GlutaMAX (Gibco), 1% (v/v) sodium pyruvate (Gibco), 125 μg/mL hygromycin (Invitrogen), and 10 μg/mL blasticidin (Gibco) or DMEM supplemented with 10% (v/v) fetal bovine serum, respectively, at 37 °C in 5% (v/v) CO2. For microscopy, cells were seeded on poly-L-lysine (Sigma)-coated slides. Transient plasmid transfections were performed using 25 kDa linear polyethylenimine (Polysciences). Plasmid (100 ng) encoding HA-Parkin-IRES-GFP, mito-mCherry or Parkin-mEGFP, or 500 ng plasmid encoding PGAM5-FLAG were used per 6-well. Total transfected DNA was 2 μg/well. For siRNA transfection, 2 × 10^5 cells were seeded per 6-well and on the next day transfected with 20 nM siRNA-oligonucleotide using lipofectamine RNAiMAX (ThermoFisher). Cells were analyzed 27 h post-transfection or five days post-siRNA-transfection. HEK293 T-REx PINK1 cells were induced with 0.3 μg/mL doxycycline for 24 h before further processing. […] For quantification, ImageJ was used (http://rsb.info.nih.gov/ij/). Immunoblots shown are representative of at least three independent experiments and were evaluated using Excel and GraphPad Prism 9 (GraphPad Software, Inc.).

CC(=O)N[C@@H](C)C(=O)N[C@H](C(=O)N[C@@H](Cc1ccccc1)C(=O)N[C@@H](CC(C)C)C(=O)N[C@@H](C)C(=O)C(=O)NCCCCc1ccccc1)C(C)C [compound 5] (Ac-AVFL[X1]-{NH(4-phenylbutyl)})
Effect on cleavage and stabilization of overexpressed PINK1: dose-dependent stabilization of PINK1–66 | Effect on cleavage and stabilization of overexpressed PINK1 (listed as Compound 5): inhibits the PARL-cleavage of overexpressed PINK1 in a dose-dependent manner
